Assay results reported in paper PMC6176658, “Experimentally Validated Pharmacoinformatics Approach to Predict hERG Inhibition Potential of New Chemical Entities” (Frontiers in Pharmacology, 2018).

Target: T1, hERG (Kv11.1) potassium channel (Homo sapiens, UniProt Q12809)
T1 construct: gene KCNH2
Assay: cell-based

T1 sequence (Q12809 whole entry): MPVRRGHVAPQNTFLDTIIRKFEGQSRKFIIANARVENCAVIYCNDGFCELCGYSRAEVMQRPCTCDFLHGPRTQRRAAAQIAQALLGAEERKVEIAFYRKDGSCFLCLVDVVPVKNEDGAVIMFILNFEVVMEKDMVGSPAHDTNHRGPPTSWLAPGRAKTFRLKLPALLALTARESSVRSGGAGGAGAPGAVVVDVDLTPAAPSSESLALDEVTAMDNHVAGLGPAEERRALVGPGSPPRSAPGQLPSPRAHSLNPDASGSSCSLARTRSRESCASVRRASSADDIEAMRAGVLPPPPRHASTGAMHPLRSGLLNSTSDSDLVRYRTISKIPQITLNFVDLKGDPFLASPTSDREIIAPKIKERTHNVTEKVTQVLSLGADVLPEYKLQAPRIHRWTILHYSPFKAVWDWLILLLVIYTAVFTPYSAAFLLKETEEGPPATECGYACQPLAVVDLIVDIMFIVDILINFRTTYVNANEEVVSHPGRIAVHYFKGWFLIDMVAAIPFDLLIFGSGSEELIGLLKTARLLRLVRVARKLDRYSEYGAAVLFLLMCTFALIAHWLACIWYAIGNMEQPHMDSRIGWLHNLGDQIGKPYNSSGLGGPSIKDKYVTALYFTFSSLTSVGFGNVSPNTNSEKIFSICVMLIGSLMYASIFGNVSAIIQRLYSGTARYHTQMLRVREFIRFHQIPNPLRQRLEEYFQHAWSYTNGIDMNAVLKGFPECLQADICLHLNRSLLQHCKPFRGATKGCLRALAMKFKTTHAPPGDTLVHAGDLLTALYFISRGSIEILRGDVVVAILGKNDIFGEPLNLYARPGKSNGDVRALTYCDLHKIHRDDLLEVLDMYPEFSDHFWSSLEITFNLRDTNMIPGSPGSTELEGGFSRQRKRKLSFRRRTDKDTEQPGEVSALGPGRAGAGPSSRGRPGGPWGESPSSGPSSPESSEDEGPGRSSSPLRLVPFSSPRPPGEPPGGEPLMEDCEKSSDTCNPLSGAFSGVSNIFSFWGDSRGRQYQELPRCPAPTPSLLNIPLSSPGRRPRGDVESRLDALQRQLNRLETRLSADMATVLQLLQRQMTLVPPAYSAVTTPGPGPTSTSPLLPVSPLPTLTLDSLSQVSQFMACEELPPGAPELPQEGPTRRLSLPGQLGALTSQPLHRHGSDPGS

Compound: CCOC(=O)c1cc(C)n(-c2ccccc2)c1C [OSM-S-31]
- IC50: 3.89 µM
